The values that follow come from a melting point compilation (Tetko et al.).

For orientation: melting point means the temperature, or range, at which the solid turns liquid.

Each structure is given as a SMILES string.

Compound `Nc1nn2cc(-c3ccccc3)nc2c2ccccc12` registered a melting point of 215 to 217 °C. For `NCc1ccc(OCCCOc2ccc(Cl)cc2Cl)cc1` the value was 51 to 53 °C; for `COc1cc(-c2nnc(S)o2)cc(OC)c1OC`, 97 to 99 °C. For `NNC(=O)CNc1ccc(F)cc1` the value was 80 to 83 °C. The figure for `Nc1ccnc2nc(C(F)(F)F)nn12` is 221 to 223 °C; for `NC(=O)N1CCc2ccccc21` it is 160 to 162 °C.

For `O=C(O)c1cccnc1SCC1CCCCC1`, the melting point lay within 145 to 147 °C. With `Fc1cccc(-c2nnc(CCl)o2)c1`, the melting point lay within 65 to 67 °C. The figure for `CCOc1ccccc1S(N)(=O)=O` is 154 to 156 °C; for `COc1ccsc1C(=O)O` it is 179 to 181 °C.

In turn, `Cc1cc(C=O)c(C)n1C(C)C` showed a melting point of 45 to 47 °C.

`Nc1nnc(C2CC2)o1`: the melting point was in the range of 170 to 172 °C. For `CS(=O)(=O)c1ccc(C(=O)NN)cc1` the value was 189 to 191 °C; for `Nc1ccc(N2CCc3sccc3C2)cc1`, 61 to 63 °C. `CCn1nc(C)c(C(=O)O)c1C(F)F` registered a melting point of 134 to 136 °C. The figure for `CCOC(=O)COc1ccccc1C(=O)O` is 100 to 102 °C; for `COc1ccc(Br)cc1C(N)C(=O)O` (stereo not drawn) it is 163 to 165 °C; for `O=C(O)c1cccc(S(=O)(=O)CC(F)(F)F)c1` it is 192 to 194 °C. The figure for `Cc1cc2nc(-c3ccccc3)cc(C(=O)O)c2cc1C` is 251 to 253 °C; for `NS(=O)(=O)CC1CCC1` it is 97 to 99 °C; for `O=C(O)C=Cc1ccccc1OC(F)(F)F` it is 174 to 176 °C. As to `O=C(Cc1ccc(Cl)cc1Cl)c1ccc(F)cc1`, the melting point is 108 to 110 °C.

With `c1ccc(COc2ccc3cn[nH]c3c2)cc1`, the melting point was in the range of 166 to 168 °C. The figure for `CCCN1C(=O)NC(C)(C)C1=O` is 109 to 111 °C. The figure for `COc1cc(CCl)ccc1S(C)(=O)=O` is 106 to 108 °C; for `O=C(c1cccnc1Cl)N1CCCCC1` it is 67 to 69 °C; for `Cc1cc(O)c([N+](=O)[O-])cc1S(=O)(=O)Cl` it is 63 to 65 °C.

`N#Cc1ccc(C(Cl)C(N)=O)cc1` (stereo not drawn) yielded a melting point of 114 to 116 °C.

In turn, `CNC(=O)COc1ccc(C(=O)O)cc1OC` gave a melting point of 221 to 223 °C. As to `Sc1nnc(-c2ccco2)n1-c1ccccc1`, the melting point fell in the range of 121 to 123 °C. For `Nc1ccc(Oc2ccc(Cl)cc2)cc1C(=O)O` the value was 177 to 179 °C. In the case of `N#Cc1c(N)nc2n1CCS2`, the melting point lay within 216 to 218 °C. For `O=C(O)C1CCCN1C(=O)c1ccncc1` (stereo not drawn) the value was 79 to 81 °C. For `CCCS(=O)(=O)N1CCCCC1C(=O)O` (stereo not drawn) the value was 84 to 86 °C.

Consider `N#Cc1cnc(N)cn1`, for which the melting point lay within 186 to 188 °C. The figure for `O=C(NC1CCOCC1)c1ccc(Cl)nn1` is 152 to 154 °C. The compound `Nc1nc(N)nc(C2CCCC2)n1` gave a melting point of 202 to 204 °C.

For `CC(NC(=O)Oc1ccccc1)C(=O)O` (stereo not drawn), the melting point was in the range of 122 to 124 °C. For `COc1ccc(OCc2cc(C(=O)O)c(C)o2)cc1` the value was 123 to 133 °C. The compound `CC(C)C1NC(=O)c2ccccc2NC1=O` (stereo not drawn) returned a melting point of 259 to 261 °C. Compound `O=C(O)c1cnn(-c2cccc(C(F)(F)F)c2)c1C1CC1` returned a melting point of 172 to 174 °C. For `O=c1c2ccccc2ncn1CCCl` the value was 124 to 126 °C; for `Cc1nc(N)sc1Cc1ccccc1Cl`, 126 to 128 °C; for `N#CCc1nc2ccc(Br)cc2c(=O)[nH]1`, 279 to 281 °C. For `Nc1ccnc(OCCO)c1` the value was 99 to 101 °C. For `NC(=NO)c1ccc(-n2cnc3ccccc32)nc1` the value was 214 to 216 °C; for `CSCCC(NS(=O)(=O)c1ccccc1F)C(=O)O` (stereo not drawn), 104 to 106 °C. In turn, `CC1CCNc2ccccc2N1` (stereo not drawn) gave a melting point of 96 to 98 °C.
